Reference: US20210188843A1, “QUINOLINE COMPOUNDS AND THEIR PREPARATION AND USE AS ANTIMALARIAL AGENTS” (The United States of America,as represented by the …, priority 2018, published 2021)
≈ marks a conversion by molar mass, not a printed value. Where two headings read alike, the source gives them in different places.

Assays:
[1] = system: Asexual parasites of P. falciparum strain 3D7; test: In vitro drug activity on asexual parasites (SYBR Green assay); assay type: cell-based; details: Plasmodium falciparum, P. falciparum 3D7 asexual stage, 72 h, read-out: Asexual EC50
Summary of the method: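 3D7 asexual cultures at 0.5% parasitemia and 2% hematocrit were exposed to drug (DMSO <0.5%) for 72 h under standard culture conditions, in duplicate with no-drug and RBC-only controls. After freeze-thaw lysis, SYBR Green I lysis buffer was added for 30 min at room temperature; fluorescence was read at 490 nm excitation/520 nm emission.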

[2] = Microsomal stability (rat); assay type: in vitro ADME; details: rat microsomes
[3] = Solubility pH 7.4; assay type: physicochemical; details: aqueous buffer
[4] = Table 1, read-out: Microsomal Stability (rat) T1/2
[5] = Table 3, read-out: Microsomal Stability (rat) T1/2
[6] = Table 2, read-out: Microsomal Stability (rat) T1/2

| Compound | EC50 ([1]; Table 1) [nM] | half-life [2, 4] [min] | solubility ([3]; Table 1) [µg/mL] | also measured |
| --- | --- | --- | --- | --- |
| Cc1cc(NCCN(C)C)c(C#N)cc1-n1c(=N)n(C)c2cnc3ccc(-c4ccc(Cl)cc4)cc3c21 [Compound 113, 5-(8-(4-chlorophenyl)-2-imino-3-methyl-2,3-dihydro-1H-imidazo[4,5-c]quinolin-1-yl)-2-((2-(dimethylamino)ethyl)amino)-4-methylbenzonitrile] | 546 | > 30 | > 50 |  |
| Cc1cc(N2CCC(O)CC2)c(C#N)cc1-n1c(=N)n(C)c2cnc3ccc(-c4ccc(Cl)cc4)cc3c21 [Compound 114, 5-(8-(4-chlorophenyl)-2-imino-3-methyl-2,3-dihydro-1H-imidazo[4,5-c]quinolin-1-yl)-2-(4-hydroxypiperidin-1-yl)-4-methylbenzonitrile] | 55.2 | > 30 | < 1 |  |
| Cc1ncncc1-n1c(=N)n(C)c2cnc3ccc(-c4ccc(Cl)c(C(F)(F)F)c4)cc3c21 |  |  |  | EC50 ([1]; Table 3): 160 nM; half-life [2, 5]: > 30 min; solubility ([3]; Table 3): 10.6 µg/mL (≈ 22.6 µM) |
| N=c1ccc2cnc3ccc(-c4ccc(Cl)cc4)cc3c2n1-c1cccc(C(F)(F)F)c1 |  |  |  | EC50 ([1]; Table 2): 213 nM; half-life [2, 6]: > 30 min; solubility ([3]; Table 2): 11.5 µg/mL (≈ 25.6 µM) |
| Cn1c(=N)n(-c2cccc(S(C)(=O)=O)c2)c2c3cc(-c4ccc(Cl)cc4)ccc3ncc21 [Compound 75, 8-(4-chlorophenyl)-3-methyl-1-(3-(methylsulfonyl)phenyl)-1,3-dihydro-2H-imidazo[4,5-c]quinolin-2-imine] | 1020 | > 30 | 11.7 (≈ 25.3 µM) |  |
| Cc1ccc(C#N)cc1-n1c(=N)n(C)c2cnc3ccc(-c4ccccc4Cl)cc3c21 [Compound 62, 3-(8-(2-chlorophenyl)-2-imino-3-methyl-2,3-dihydro-1H-imidazo[4,5-c]quinolin-1-yl)-4-methylbenzonitrile] | 704 | 18.5 | 7.8 (≈ 18.4 µM) |  |
| Cc1nc(N2CCNCC2)c(C#N)cc1-n1c(=N)n(C)c2cnc3ccc(-c4ccc(Cl)cc4)cc3c21 [Compound 47, 5-(8-(4-chlorophenyl)-2-imino-3-methyl-2,3-dihydro-1H-imidazo[4,5-c]quinolin-1-yl)-6-methyl-2-(piperazin-1-yl)nicotinonitrile] | 69.7 | > 30 | 6 (≈ 11.8 µM) |  |
| Cc1cccc(-n2c(=N)n(C)c3cnc4ccc(-c5ccc(Cl)cc5)cc4c32)c1 [Compound 66, 8-(4-chlorophenyl)-3-methyl-1-(m-tolyl)-1,3-dihydro-2H-imidazo[4,5-c]quinolin-2-imine] | 382 | > 30 | 4 (≈ 10 µM) |  |
| CCc1ccc(C#N)cc1-n1c(=N)n(C)c2cnc3ccc(-c4ccc(Cl)cc4)cc3c21 [Compound 7, 3-(8-(4-chlorophenyl)-2-imino-3-methyl-2,3-dihydro-1H-imidazo[4,5-c]quinolin-1-yl)-4-ethylbenzonitrile] | 360 | > 30 | 3.4 (≈ 7.76 µM) |  |
| Cc1ncncc1-n1c(=N)n(C)c2cnc3ccc(-c4ccc(N)nc4)cc3c21 |  |  |  | EC50 ([1]; Table 3): 164 nM; half-life [2, 5]: > 30 min; solubility ([3]; Table 3): > 38 µg/mL |
| COc1ccc(-n2c(=N)n(C)c3cnc4ccc(-c5ccc(Cl)cc5)cc4c32)cc1C#N [Compound 84, 5-(8-(4-chlorophenyl)-2-imino-3-methyl-2,3-dihydro-1H-imidazo[4,5-c]quinolin-1-yl)-2-methoxybenzonitrile] | 658 | > 30 | < 1 |  |
| Cn1c(=N)n([C@H]2CC[C@@H](N3CCOCC3)CC2)c2c3cc(-c4ccc(Cl)cc4)ccc3ncc21 [Compound 59, 8-(4-chlorophenyl)-3-methyl-1-((1s,4s)-4-morpholinocyclohexyl)-1,3-dihydro-2H-imidazo[4,5-c]quinolin-2-imine] | 13200 | > 30 | > 47 |  |
| COc1cccc(-n2c(=N)n(C)c3cnc4ccc(-c5ccc(Cl)cc5)cc4c32)c1 [Compound 64, 8-(4-chlorophenyl)-1-(3-methoxyphenyl)-3-methyl-1,3-dihydro-2H-imidazo[4,5-c]quinolin-2-imine] | 1300 | > 30 | 20.8 (≈ 50.1 µM) |  |
| Cc1ccc(C#N)cc1-n1c(=N)n(CCO)c2cnc3ccc(-c4ccc(Cl)cc4)cc3c21 [Compound 95, 3-(8-(4-chlorophenyl)-3-(2-hydroxyethyl)-2-imino-2,3-dihydro-1H-imidazo[4,5-c]quinolin-1-yl)-4-methylbenzonitrile] | 2580 | > 30 | 27.4 (≈ 60.4 µM) |  |
| Cn1c(=N)n(C2CCN(C3CCNCC3)CC2)c2c3cc(-c4ccc(Cl)cc4)ccc3ncc21 [Compound 97, 1-([1,4′-bipiperidin]-4-yl)-8-(4-chlorophenyl)-3-methyl-1,3-dihydro-2H-imidazo[4,5-c]quinolin-2-imine] | 5100 | > 30 | > 47 |  |
| Cn1c(=N)n(-c2ccccc2F)c2c3cc(-c4ccc(Cl)cc4)ccc3ncc21 [Compound 80, 8-(4-chlorophenyl)-1-(2-fluorophenyl)-3-methyl-1,3-dihydro-2H-imidazo[4,5-c]quinolin-2-imine] | 955 | > 30 | 12.4 (≈ 30.8 µM) |  |
| Cc1nc(N2CCOCC2)c(C#N)cc1-n1c(=N)n(C)c2cnc3ccc(-c4cccc(F)c4)cc3c21 [Compound 142, 5-(8-(3-fluorophenyl)-2-imino-3-methyl-2,3-dihydro-1H-imidazo[4,5-c]quinolin-1-yl)-6-methyl-2-morpholinonicotinonitrile] | 225 | > 30 | > 49 |  |
| Cc1ccc(S(C)(=O)=O)cc1-n1c(=N)n(C)c2cnc3ccc(-c4ccc(Cl)cc4)cc3c21 [Compound 122, 8-(4-chlorophenyl)-3-methyl-1-(2-methyl-5-(methylsulfonyl)phenyl)-1,3-dihydro-2H-imidazo[4,5-c]quinolin-2-imine] | 1610 | > 30 | > 47 |  |
| COc1ccccc1-n1c(=N)n(C)c2cnc3ccc(-c4ccc(Cl)cc4)cc3c21 [Compound 82, 8-(4-chlorophenyl)-1-(2-methoxyphenyl)-3-methyl-1,3-dihydro-2H-imidazo[4,5-c]quinolin-2-imine] | 1670 | > 30 | > 41 |  |
| Cn1c(=N)n(C2CC(N3CCNCC3)C2)c2c3cc(-c4ccc(Cl)cc4)ccc3ncc21 (stereo not drawn) [Compound 98, 8-(4-chlorophenyl)-3-methyl-1-(3-(piperazin-1-yl)cyclobutyl)-1,3-dihydro-2H-imidazo[4,5-c]quinolin-2-imine] | 2550 | > 30 | > 44 |  |
| Cn1c(=N)n(-c2nccc(O)n2)c2c3cc(-c4cccc(F)c4)ccc3ncc21 |  |  |  | EC50 ([1]; Table 3): 18800 nM; half-life [2, 5]: > 30 min; solubility ([3]; Table 3): < 1 µg/mL |
| CCn1c(=N)n(-c2cc(C#N)ccc2C)c2c3cc(-c4ccc(Cl)cc4)ccc3ncc21 [Compound 93, 3-(8-(4-chlorophenyl)-3-ethyl-2-imino-2,3-dihydro-1H-imidazo[4,5-c]quinolin-1-yl)-4-methylbenzonitrile] | 813 | > 30 | 13.6 (≈ 31.1 µM) |  |
| Cc1cc(N2CCN(C(N)=O)CC2)c(C#N)cc1-n1c(=N)n(C)c2cnc3ccc(-c4ccc(Cl)cc4)cc3c21 [Compound 126, 4-(4-(8-(4-chlorophenyl)-2-imino-3-methyl-2,3-dihydro-1H-imidazo[4,5-c]quinolin-1-yl)-2-cyano-5-methylphenyl)piperazine-1-carboxamide] | 14.5 | > 30 | 2.2 (≈ 3.99 µM) |  |
| CC(=O)c1cccc(-n2c(=N)n(C)c3cnc4ccc(-c5ccc(Cl)cc5)cc4c32)c1 [Compound 74, 1-(3-(8-(4-chlorophenyl)-2-imino-3-methyl-2,3-dihydro-1H-imidazo[4,5-c]quinolin-1-yl)phenyl)ethan-1-one] | 445 | > 30 | > 42 |  |
| Cc1ccccc1-c1ccc2ncc3c(c2c1)n(-c1cc(C#N)ccc1C)c(=N)n3C [Compound 61, 3-(2-imino-3-methyl-8-(o-tolyl)-2,3-dihydro-1H-imidazo[4,5-c]quinolin-1-yl)-4-methylbenzonitrile] | 1720 | 10 | 19.2 (≈ 47.6 µM) |  |
| COC(=O)/N=c1\n(C)c2cnc3ccc(-c4cccc(F)c4)cc3c2n1-c1cc(C#N)c(N2CCN(C)CC2)cc1C [Compound 146, Methyl (E)-(1-(5-cyano-2-methyl-4-(4-methylpiperazin-1-yl)phenyl)-8-(3-fluorophenyl)-3-methyl-1,3-dihydro-2H-imidazo[4,5-c]quinolin-2-ylidene)carbamate] | 62.7 | 21.2 | 14.5 (≈ 25.7 µM) |  |
| Cc1ccc([S+](=O)([O-])/N=c2\ccc3cnc4ccc(-c5ccc(Cl)cc5)cc4c3n2-c2ccc(C(=O)NC3CC3)cc2)cc1 |  |  |  | EC50 ([1]; Table 2): 59 nM; half-life [2, 6]: 11.5 min; solubility ([3]; Table 2): < 1 µg/mL |
| Cc1cccc(C)c1-n1c(=N)n(C)c2cnc3ccc(-c4ccc(Cl)cc4)cc3c21 [Compound 99, 8-(4-chlorophenyl)-1-(2,6-dimethylphenyl)-3-methyl-1,3-dihydro-2H-imidazo[4,5-c]quinolin-2-imine] | 3180 | > 30 | > 41 |  |
| Cn1c(=N)n(-c2nccc(N)n2)c2c3cc(-c4cccc(F)c4)ccc3ncc21 |  |  |  | EC50 ([1]; Table 3): 1570 nM; half-life [2, 5]: > 30 min; solubility ([3]; Table 3): 5.2 µg/mL (≈ 13.5 µM) |
| Cn1c(=N)n(-c2cc(C#N)ccc2F)c2c3cc(-c4ccc(Cl)cc4)ccc3ncc21 [Compound 10, 3-(8-(4-chlorophenyl)-2-imino-3-methyl-2,3-dihydro-1H-imidazo[4,5-c]quinolin-1-yl)-4-fluorobenzonitrile] | 24.4 | > 30 | < 1 |  |
